Where two headings read alike, the source gives them in different places. Numbered stars: 1 amine (or outer) side, 2 acyl side, 3 side chain; on linkers, the order of the positions; unused ones are H or OH. Bridge positions count the residues as written; N and C are the ends. Square brackets hold non-standard residues; d marks the D form. Peptide text beside a SMILES is read from it. * marks the point of attachment. C20 diacid = O=C(O)CCCCCCCCCCCCCCCCCCC(=O)*; γGlu = O=C(O)[C@H](CCC(=O)[*:2])N[*:1]; NMeI = CC[C@H](C)[C@H](NC)C(=O)O; Sar = CNCC(=O)O
Legend:
[1] = target: T1, human calcitonin receptor (hCTR2) (Homo sapiens, UniProt P30988); test: hCTR2 assay: induction of cAMP (AlphaScreen cAMP Assay kit) in COS7 cells expressing hCTR2; format: cell-based
T1 construct: expressed in transfected cells
T1 sequence (P30988 25-474): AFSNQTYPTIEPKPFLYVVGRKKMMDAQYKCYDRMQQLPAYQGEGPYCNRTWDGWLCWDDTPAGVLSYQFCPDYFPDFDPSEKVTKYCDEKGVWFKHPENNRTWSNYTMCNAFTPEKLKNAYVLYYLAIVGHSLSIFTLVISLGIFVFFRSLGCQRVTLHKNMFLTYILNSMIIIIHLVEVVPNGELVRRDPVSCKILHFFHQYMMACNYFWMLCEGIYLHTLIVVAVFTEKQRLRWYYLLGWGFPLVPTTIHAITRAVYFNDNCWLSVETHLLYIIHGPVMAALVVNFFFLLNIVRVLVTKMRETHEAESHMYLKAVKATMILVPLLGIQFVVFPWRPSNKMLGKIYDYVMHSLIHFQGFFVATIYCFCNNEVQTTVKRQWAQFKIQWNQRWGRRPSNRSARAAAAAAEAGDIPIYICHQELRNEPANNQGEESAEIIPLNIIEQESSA
How it was run: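 Stable RAMP-naive COS7 clone expressing hCTR2 was stimulated with increasing peptide concentrations in Tyrode buffer (pH 7.4) with 100 µM IBMX and 0.1% casein for 15 min at 37° C. Cells were lysed and cAMP measured by AlphaScreen. EC50 and efficacy relative to pramlintide came from 4PL curve fits.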

[2] = Solubility assessment (turbidity absorbance at 325 nm); format: physicochemical; details: stock 2 mg/ml diluted 1:1, ambient temperature (typically 25°C), n=1; for Solubility, Acetate buffer pH 4: 100 mM acetate buffer pH 4.0; for Solubility, Acetate buffer pH 5: 100 mM acetate buffer pH 5.0; for Solubility, Histidine buffer pH 6: 100 mM histidine buffer pH 6.0; for Solubility, Histidine buffer pH 7: 100 mM histidine buffer pH 7.0; for Solubility, Phosphate buffer pH 6: 100 mM phosphate buffer pH 6.0; for Solubility, Phosphate buffer pH 7: 100 mM phosphate buffer pH 7.0; for Solubility, Phosphate buffer pH 7.5: 100 mM phosphate buffer pH7.5
How it was run: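 Peptide stock (2 mg/ml, water pH 2.5) diluted 1:1 into 100 mM acetate (pH 4.0, 5.0), histidine (pH 6.0, 7.0) or phosphate (pH 6.0–7.5) buffer; absorbance at 325 nm read at about 25°C, n=1. A325 ≤ 0.02 taken as solubility ≥ 1 mg/ml.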

[3] = target: T2, human amylin receptor 3 (hAMYR3) consisting of hCTR2 co-expressed with human Receptor Activity Modifying Protein 3 (hRAMP3) (Homo sapiens, UniProt O60896+P30988); test: hAMYR3 assay: induction of cAMP (AlphaScreen cAMP Assay kit) in COS7 cells expressing hAMYR3; format: cell-based; details: cAMP induction in COS7 cells expressing hAMYR3; average of a minimum of 3 determinations; read-out: hAMY R3 EC50
T2 construct: expressed in transfected cells
T2 sequence (P30988 25-474): T1 sequence (P30988 25-474)
T2 sequence (O60896 24-148 partner): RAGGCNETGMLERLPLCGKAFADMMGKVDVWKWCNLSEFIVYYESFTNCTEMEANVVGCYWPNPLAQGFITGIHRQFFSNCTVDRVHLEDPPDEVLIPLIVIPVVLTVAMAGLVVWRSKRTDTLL
How it was run: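 Stable COS7 clone co-expressing hCTR2 and hRAMP3, stimulated 15 min at 37° C with increasing peptide in Tyrode buffer pH 7.4 with 100 µM IBMX and 0.1% casein. cAMP measured by AlphaScreen after lysis; EC50 and % efficacy versus pramlintide from 4PL fit.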

EC50 ([1]; cAMP induction in COS7 cells expressing hCTR2, average of a minimum of 3 determinations, read-out: hCTR2 EC50) [pM] | Structure (SMILES) | EC50 [1] [pM] | Solubility, Acetate buffer pH 4 [2] | Solubility, Acetate buffer pH 5 [2] | Solubility, Histidine buffer pH 6 [2] | Solubility, Histidine buffer pH 7 [2] | Solubility, Phosphate buffer pH 6 [2] | Solubility, Phosphate buffer pH 7 [2] | Solubility, Phosphate buffer pH 7.5 [2] | EC50 [3] [pM]
 | CC[C@H](C)[C@@H](C(=O)N[C@@H](CC(C)C)C(=O)N[C@@H](CO)C(=O)N[C@@H](CO)C(=O)N[C@H](C(=O)N[C@@H](CCC(=O)O)C(=O)N[C@H](C(=O)NCC(=O)N[C@@H](CO)C(=O)N[C@@H](CCC(=O)O)C(=O)N[C@H](C(=O)N1CCC[C@H]1C(N)=O)[C@@H](C)O)C(C)C)[C@@H](C)O)N(C)C(=O)[C@H](C)NC(=O)CN(C)C(=O)[C@H](Cc1ccccc1)NC(=O)[C@H](CO)NC(=O)[C@H](CO)NC(=O)[C@H](CO)NC(=O)[C@H](CO)NC(=O)[C@H](CCCNC(=N)N)NC(=O)[C@H](Cc1c[nH]cn1)NC(=O)[C@H](CC(C)C)NC(=O)[C@H](Cc1ccccc1)NC(=O)[C@H](CCC(=O)O)NC(=O)[C@H](C)NC(=O)[C@H](CC(C)C)NC(=O)[C@H](CCCNC(=N)N)NC(=O)[C@H](C)NC(=O)[C@@H](NC(=O)[C@H](C)NC(=O)[C@@H]1CSSC[C@H](NC(=O)[C@H](CCCNC(=N)N)NC(=O)CC[C@H](NC(=O)CCCCCCCCCCCCCCCCCCC(=O)O)C(=O)O)C(=O)N2CCC[C@H]2C(=O)N[C@@H]([C@@H](C)O)C(=O)N[C@@H](C)C(=O)N[C@@H]([C@@H](C)O)C(=O)N1)[C@@H](C)O [Compound 147, [19CD]-isoGlu-RC()PTATC()ATARLAEFLHRSSSSF-Gly(Me)-A-Ile(Me)-LSSTEVGSETP-NH2] ({C20 diacid-γGlu}-RCPTATCATARLAEFLHRSSSSF[Sar]A[NMeI]LSSTEVGSETP-NH2; disulfide 2-7) | 160 | SS (SS indicates solubility ≥ 1mg/ml) | II (II indicates solubility ≤ 1 mg/ml) | SS (SS indicates solubility ≥ 1mg/ml) | SS (SS indicates solubility ≥ 1mg/ml) | SS (SS indicates solubility ≥ 1mg/ml) | SS (SS indicates solubility ≥ 1mg/ml) | SS (SS indicates solubility ≥ 1mg/ml) | 160
140 | CC[C@H](C)[C@@H](C(=O)N[C@@H](CC(C)C)C(=O)N[C@@H](CO)C(=O)N[C@@H](CO)C(=O)N[C@H](C(=O)N[C@@H](CCC(=O)O)C(=O)N[C@H](C(=O)NCC(=O)N[C@@H](CO)C(=O)N[C@@H](CCC(=O)O)C(=O)N[C@H](C(=O)N1CCC[C@H]1C(N)=O)[C@@H](C)O)C(C)C)[C@@H](C)O)N(C)C(=O)[C@H](C)NC(=O)CN(C)C(=O)[C@H](Cc1ccccc1)NC(=O)[C@H](CO)NC(=O)[C@H](CO)NC(=O)[C@H](CO)NC(=O)[C@H](CO)NC(=O)[C@H](CCCNC(=N)N)NC(=O)[C@H](Cc1c[nH]cn1)NC(=O)[C@H](CC(C)C)NC(=O)[C@H](Cc1ccccc1)NC(=O)[C@H](CCC(=O)O)NC(=O)[C@H](C)NC(=O)[C@H](CC(C)C)NC(=O)[C@H](CCCNC(=N)N)NC(=O)[C@H](CC(=O)O)NC(=O)[C@@H](NC(=O)[C@H](C)NC(=O)[C@@H]1CSSC[C@H](NC(=O)[C@H](CCCNC(=N)N)NC(=O)CC[C@H](NC(=O)CCCCCCCCCCCCCCCCCCC(=O)O)C(=O)O)C(=O)N[C@@H](CO)C(=O)N[C@@H]([C@@H](C)O)C(=O)N[C@@H](C)C(=O)N[C@@H]([C@@H](C)O)C(=O)N1)[C@@H](C)O [Compound 148, [19CD]-isoGlu-RC()STATC()ATDRLAEFLHRSSSSF-Gly(Me)-A-Ile(Me)-LSSTEVGSETP-NH2] ({C20 diacid-γGlu}-RCSTATCATDRLAEFLHRSSSSF[Sar]A[NMeI]LSSTEVGSETP-NH2; disulfide 2-7) |  | SS (SS indicates solubility ≥ 1mg/ml) | SS (SS indicates solubility ≥ 1mg/ml) | SS (SS indicates solubility ≥ 1mg/ml) | SS (SS indicates solubility ≥ 1mg/ml) | SS (SS indicates solubility ≥ 1mg/ml) | SS (SS indicates solubility ≥ 1mg/ml) | SS (SS indicates solubility ≥ 1mg/ml) | 170
 | CC[C@H](C)[C@@H](C(=O)N[C@@H](CC(C)C)C(=O)N[C@@H](CO)C(=O)N[C@@H](CO)C(=O)N[C@H](C(=O)N[C@@H](CCC(=O)O)C(=O)N[C@H](C(=O)NCC(=O)N[C@@H](CO)C(=O)N[C@@H](CCC(=O)O)C(=O)N[C@H](C(=O)N1CCC[C@H]1C(N)=O)[C@@H](C)O)C(C)C)[C@@H](C)O)N(C)C(=O)[C@H](C)NC(=O)CN(C)C(=O)[C@H](Cc1ccccc1)NC(=O)[C@H](CO)NC(=O)[C@H](CO)NC(=O)[C@H](CO)NC(=O)[C@H](CO)NC(=O)[C@H](CCCNC(=N)N)NC(=O)[C@H](Cc1c[nH]cn1)NC(=O)[C@H](CC(C)C)NC(=O)[C@H](Cc1ccccc1)NC(=O)[C@H](CCC(=O)O)NC(=O)[C@H](C)NC(=O)[C@H](CC(C)C)NC(=O)[C@H](CCCNC(=N)N)NC(=O)[C@H](CC(=O)O)NC(=O)[C@@H](NC(=O)[C@H](C)NC(=O)[C@@H]1CSSC[C@H](NC(=O)[C@H](CCCNC(=N)N)NC(=O)CC[C@H](NC(=O)CCCCCCCCCCCCCCCCCCC(=O)O)C(=O)O)C(=O)N[C@@H](CC(=O)O)C(=O)N[C@@H]([C@@H](C)O)C(=O)N[C@@H](C)C(=O)N[C@@H]([C@@H](C)O)C(=O)N1)[C@@H](C)O [Compound 149, [19CD]-isoGlu-RC()DTATC()ATDRLAEFLHRSSSSF-Gly(Me)-A-Ile(Me)-LSSTEVGSETP-NH2] ({C20 diacid-γGlu}-RCDTATCATDRLAEFLHRSSSSF[Sar]A[NMeI]LSSTEVGSETP-NH2; disulfide 2-7) | 160 | SS (SS indicates solubility ≥ 1mg/ml) | SS (SS indicates solubility ≥ 1mg/ml) | SS (SS indicates solubility ≥ 1mg/ml) | SS (SS indicates solubility ≥ 1mg/ml) | SS (SS indicates solubility ≥ 1mg/ml) | SS (SS indicates solubility ≥ 1mg/ml) | SS (SS indicates solubility ≥ 1mg/ml) | 260

— EP3046573B1, “AMYLIN ANALOGUES” (Zealand Pharma A/S, priority 2013, dated 2015)
